According to the NIST ThermoML archive (doi:10.1021/je300517q):
± gives the expanded uncertainty stated by the source.

Legend:
[1] = Molar enthalpy of transition or fusion; conditions: Crystal; DSC
[2] = Crystal; DTA

SMILES: Nc1cccnn1 [3-pyridazinamine]
- Molar enthalpy of transition or fusion [1]: 2.63 ± 0.17 kJ/mol
- Normal melting temperature [2]: 169.47 ± 0.39 °C
